The values that follow come from paper PMC8290231 (Cancer Medicine, 2021).

In test [1] the test system is FGFR1 signal pathway in Ba/F3‐FGFR1‐V561M. Put plainly: Western blot of FGFR1 signal pathway. The following applies: 300 nM. Type of test: cell-based. The method, then:
(§1) Cells were treated with different concentrations of compound or DMSO for indicated time. Then, cells were lysed with 1 × SDS sample lysis buffer (recommended by CST). […] After blocking with 5% BSA in TBST solution (0.5% Tween‐20) at room temperature for 4 hrs, the membranes were incubated with the corresponding primary antibody (1:2000–1:200) at 4℃ overnight. After washing with TBST for 3–5 times, the HRP‐conjugated secondary antibodies were incubated for 2 hrs. The protein signals were detected with Amersham Imager 600 system (GE, Boston, MA, USA) using an ECL western blotting detection kit (Thermo Fisher Scientific, Waltham, MA, USA).
(§2) Cell lysates were separated by sodium dodecyl sulfate‐polyacrylamide gel electrophoresis (SDS‐PAGE) and analyzed by western blot for phosphorylated FGFR1, FGFR1, phosphorylated FRS2, FRS2, phosphorylated AKT (Ser473), AKT, phosphorylated Erk, and Erk. GAPDH was used as a control
(Immunoblotting shows a protein as a band on a membrane.)

The target of test [2] is FGFR4 (Homo sapiens, UniProt P22455). As to the kind of experiment: FRET-based Z′-Lyte kinase assay. The class given is biochemical.
In test [3] the test system is FGFR1‐V561F. As to the kind of experiment: Cellular thermal shift assay (CETSA) in Ba/F3‐FGFR1‐V561F cells. The conditions noted are these: 100 nM, 38.0 to 57.8℃. The class given is binding.
Description: Pairs consisting of one experimental aliquot and one DMSO aliquot were heated from 38.0 to 57.8℃ for 3 min. Then, the samples were exposed to liquid nitrogen for 10 min, and then placed in a water bath at 37℃ for 10 min. After three freeze–thaw cycles, cell lysates were centrifuged at 12000 rpm at 4℃ for 10 min, and then boiled for 15 min. The soluble supernatant was used for WB analysis.
Drug‐treated cells were heated at gradient temperature from 38℃ to 57.8℃ for 3 min and then lysed, centrifuged to separate the soluble fractions from precipitates. The soluble fractions were analyzed by immunoblotting. Relative band intensities were plotted as a function of temperature followed a sigmoidal trend.
Test [4] deals with FGFR1 signal pathway in A549. As to the kind of experiment: Western blot of FGFR1 signal pathway. Type of test: cell-based. The method, then: as §1, §2
Test [5] has as its system FGFR1 signal pathway in A204. Put plainly: Western blot of FGFR1 signal pathway. The class given is cell-based. The protocol: as §1, §2
The subject of test [6] is FGFR1 signal pathway in Ba/F3‐FGFR1. As to the kind of experiment: Western blot of FGFR1 signal pathway. Type of test: cell-based. The following applies: Ba/F3‐FGFR1, 4 h, 3.7 nM to 300 nM. The method, then: as §1, §2
Test [7] concerns the target T1, FGFR2‐N550K (Homo sapiens, UniProt P21802, N549K).
T1 construct: purchased KINOMEscan™ (commercial assay)
Put plainly: KINOMEscan binding affinity assay.

Test [8] relates to Ba/F3 stable cells (FGFR1‐V561F/M and other mutant). Put plainly: CCK-8 proliferation, Ba/F3 stable cells with FGFR1 and mutants (summary). Type of test: cell-based. The following applies: Mus musculus, BaF3; range over Ba/F3 stable cells. The protocol: The Ba/F3 cell lines stably expressing FGFR1, FGFR1‐V561M, FGFR1‐V561F, FGFR1‐K656N, and FGFR1‐K656E were self‐established through electroporation pCDNA3.1‐TEL plasmids using the Amaxa Cell Line Nucleofector Kit V (Lonza, Cologne, Germany). Stable cell lines were selected by G418 (Merck, USA) and then withdrawal of IL‐3 (R&D). […] Parental Ba/F3 cells were maintained in RPMI 1640 supplemented with 10% FBS, 100 U/ml of penicillin, […] of streptomycin, and 10 ng/ml of IL‐3, while all Ba/F3 stable cell lines were cultured in the same medium without IL‐3.
Cells were seeded in 96‐well plate in complete medium (1000–6000 cells/well) and cultured for overnight. Then the cells were exposed to gradient concentrations (0.0005–10 μM) of compounds. Cell proliferation was analyzed by Cell Counting Kit 8 (CK04, Dojindo Laboratories, Japan) after co‐incubation for a further 72 h. IC50 values were calculated by fitting of concentration–response curves using GraphPad Prism 8.01 software. Each assay was repeated at least three times.
There is, however, no commercially available FGFR1 mutant kinase to validate this. Therefore, we constructed Ba/F3 model cells stably expressing FGFR1‐WT, K656E, K656N, V561M, and V561F mutations.

In test [9] the target is T2, FGFR3‐V555 M (Homo sapiens, UniProt P22607, V555M).
T2 construct: purchased KINOMEscan™ (commercial assay)
Put plainly: KINOMEscan binding affinity assay.

Test [10] relates to pAKT in NCI‐H716. As to the kind of experiment: Western blot of pAKT. Type of test: cell-based. The following applies: NCI‐H716, FGFR2 overexpressed, 3.7 to 300 nM. The protocol: as §1
Test [11] deals with pAKT in SNU‐16. As to the kind of experiment: Western blot of pAKT. Type of test: cell-based. The conditions noted are these: SNU‐16, FGFR2 overexpressed, 3.7 to 300 nM. The protocol:
as §1

For test [12], the target named is T3, FGFR3‐K650E (Homo sapiens, UniProt P22607, K650E).
T3 construct: purchased KINOMEscan™ (commercial assay)
As to the kind of experiment: KINOMEscan binding affinity assay.

The test system of test [13] is Ba/F3‐FGFR1‐V561M xenograft. Put plainly: Mouse xenograft tumor model. The conditions noted are these: 20 mg/kg, p.o., q2d (b60 prints Bid). The class given is in vivo, CB17‐SCID mice. The text has this: All animal studies were approved by the Institutional Animal Care and Use Committee. Male CB17‐SCID mice were purchased from Vital River Laboratory Animal Technology Inc. (Beijing, China). The right flanks of SCID mice were subcutaneously injected with 2 x 10^6 Ba/F3‐FGFR1, Ba/F3‐FGFR1‐V561F, or Ba/F3‐FGFR1‐V561M cells, respectively. When the average tumor volume reached 100–200 mm^3, mice bearing tumor were randomly divided into groups and treated with compounds or vehicle. All the compounds were suspended in 0.5% CMC‐Na aqueous solution. […] The body weight and tumor volume of animals were measured once every 2 days. Tumor volumes were calculated as L×W×W/2, where L and W are the length and width of the tumor, respectively. At the experiment terminal, tumor tissues were dissected, paraffin embedded, and sectioned for hematoxylin and eosin (H&E), immunohistochemistry (IHC), and TUNEL analysis.

Test [14] concerns Ba/F3‐FGFR1. As to the kind of experiment: Cell cycle analysis by flow cytometry (propidium iodide). The class given is cell-based. The conditions noted are these: Ba/F3‐FGFR1, 100 nM, 24 h. The protocol:
About 6 × 10^5 cells were re‐suspended in 150 μl of BD Cytofix/Cytoperm buffer solution I for 10 min at room temperature. The cell suspensions were added with BD Cytofix/Cytoperm buffer solution II and incubated with another 10 min at room temperature, and then incubated with 200 μl of propidium iodide buffer (0.1 mg/ml) in the dark for 10 min at 4℃. Assays were performed with a Guava easyCyte flow cytometer (Merck, USA).

The target in test [15] is T4, FGFR1 (Homo sapiens, UniProt P11362).
T4 construct: purchased Invitrogen (Waltham, MA, USA)
As to the kind of experiment: KINOMEscan binding affinity assay.

In test [16] the target is T5, FGFR3‐G697C (Homo sapiens, UniProt P22607, G697C).
T5 construct: purchased KINOMEscan™ (commercial assay)
As to the kind of experiment: KINOMEscan binding affinity assay.

FGFR4, sequence (P22455 22-802): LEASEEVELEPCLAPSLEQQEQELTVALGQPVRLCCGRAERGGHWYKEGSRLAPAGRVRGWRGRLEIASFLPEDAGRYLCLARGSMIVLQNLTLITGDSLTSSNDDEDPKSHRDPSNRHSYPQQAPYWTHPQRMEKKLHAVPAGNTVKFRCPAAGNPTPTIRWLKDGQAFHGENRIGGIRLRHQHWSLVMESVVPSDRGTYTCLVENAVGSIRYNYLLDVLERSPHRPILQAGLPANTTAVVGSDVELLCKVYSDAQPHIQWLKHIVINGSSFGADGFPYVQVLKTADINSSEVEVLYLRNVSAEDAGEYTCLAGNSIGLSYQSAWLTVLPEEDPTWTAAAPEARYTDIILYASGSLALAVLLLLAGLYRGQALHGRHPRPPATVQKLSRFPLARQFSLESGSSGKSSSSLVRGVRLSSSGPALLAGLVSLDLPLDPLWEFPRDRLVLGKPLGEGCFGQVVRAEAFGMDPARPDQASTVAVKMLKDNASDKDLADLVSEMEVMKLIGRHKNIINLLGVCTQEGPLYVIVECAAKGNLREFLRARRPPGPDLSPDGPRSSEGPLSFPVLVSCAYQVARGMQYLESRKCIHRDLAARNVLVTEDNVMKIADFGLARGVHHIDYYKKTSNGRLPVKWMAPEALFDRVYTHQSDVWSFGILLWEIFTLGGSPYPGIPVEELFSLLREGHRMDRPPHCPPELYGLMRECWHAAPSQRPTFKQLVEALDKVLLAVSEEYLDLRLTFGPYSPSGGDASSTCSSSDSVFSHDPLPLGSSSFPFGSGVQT
T1 sequence (P21802 22-822 isoform P21802-3 N550K limits assumed): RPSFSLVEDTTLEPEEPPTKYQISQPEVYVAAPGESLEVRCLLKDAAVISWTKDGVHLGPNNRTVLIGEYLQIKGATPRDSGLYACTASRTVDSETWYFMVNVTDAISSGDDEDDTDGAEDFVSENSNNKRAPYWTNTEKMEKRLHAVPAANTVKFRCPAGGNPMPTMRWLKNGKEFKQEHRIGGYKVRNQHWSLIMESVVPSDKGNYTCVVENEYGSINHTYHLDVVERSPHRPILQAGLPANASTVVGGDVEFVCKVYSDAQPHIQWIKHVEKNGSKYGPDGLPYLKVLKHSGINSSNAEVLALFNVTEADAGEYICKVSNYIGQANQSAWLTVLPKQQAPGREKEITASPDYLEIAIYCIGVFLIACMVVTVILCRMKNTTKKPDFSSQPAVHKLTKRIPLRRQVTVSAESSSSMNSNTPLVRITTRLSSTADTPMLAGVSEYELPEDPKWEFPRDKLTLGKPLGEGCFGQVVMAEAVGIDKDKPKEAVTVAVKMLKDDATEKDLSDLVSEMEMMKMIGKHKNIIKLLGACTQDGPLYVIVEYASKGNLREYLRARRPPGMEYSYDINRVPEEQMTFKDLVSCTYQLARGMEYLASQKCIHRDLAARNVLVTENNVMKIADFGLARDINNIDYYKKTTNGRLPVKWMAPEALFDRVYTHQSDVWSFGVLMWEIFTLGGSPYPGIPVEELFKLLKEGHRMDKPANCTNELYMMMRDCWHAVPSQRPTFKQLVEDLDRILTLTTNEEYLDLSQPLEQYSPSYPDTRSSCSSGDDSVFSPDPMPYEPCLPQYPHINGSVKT
T4 sequence (P11362 22-822): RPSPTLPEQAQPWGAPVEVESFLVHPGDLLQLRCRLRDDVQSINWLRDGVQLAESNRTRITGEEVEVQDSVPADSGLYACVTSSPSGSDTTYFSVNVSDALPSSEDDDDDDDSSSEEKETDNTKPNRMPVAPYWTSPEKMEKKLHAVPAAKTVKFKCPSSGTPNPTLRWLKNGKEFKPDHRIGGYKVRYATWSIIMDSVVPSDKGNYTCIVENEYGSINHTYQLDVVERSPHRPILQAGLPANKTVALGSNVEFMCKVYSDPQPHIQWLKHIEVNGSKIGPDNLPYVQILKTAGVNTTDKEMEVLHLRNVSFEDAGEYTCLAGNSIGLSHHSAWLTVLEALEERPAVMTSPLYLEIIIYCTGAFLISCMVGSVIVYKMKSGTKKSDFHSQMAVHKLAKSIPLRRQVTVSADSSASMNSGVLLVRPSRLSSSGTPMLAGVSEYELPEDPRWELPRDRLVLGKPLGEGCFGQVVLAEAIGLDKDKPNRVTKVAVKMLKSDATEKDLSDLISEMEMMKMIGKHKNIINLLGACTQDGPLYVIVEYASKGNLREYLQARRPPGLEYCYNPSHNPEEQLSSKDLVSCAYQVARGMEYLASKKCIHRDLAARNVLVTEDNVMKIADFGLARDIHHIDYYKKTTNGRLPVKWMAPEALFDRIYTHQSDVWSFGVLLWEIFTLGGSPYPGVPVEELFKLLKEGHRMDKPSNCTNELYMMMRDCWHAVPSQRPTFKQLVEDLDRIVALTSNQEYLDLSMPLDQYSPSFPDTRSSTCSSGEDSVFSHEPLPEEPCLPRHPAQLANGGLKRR
T5 sequence (P22607 23-806 G697C): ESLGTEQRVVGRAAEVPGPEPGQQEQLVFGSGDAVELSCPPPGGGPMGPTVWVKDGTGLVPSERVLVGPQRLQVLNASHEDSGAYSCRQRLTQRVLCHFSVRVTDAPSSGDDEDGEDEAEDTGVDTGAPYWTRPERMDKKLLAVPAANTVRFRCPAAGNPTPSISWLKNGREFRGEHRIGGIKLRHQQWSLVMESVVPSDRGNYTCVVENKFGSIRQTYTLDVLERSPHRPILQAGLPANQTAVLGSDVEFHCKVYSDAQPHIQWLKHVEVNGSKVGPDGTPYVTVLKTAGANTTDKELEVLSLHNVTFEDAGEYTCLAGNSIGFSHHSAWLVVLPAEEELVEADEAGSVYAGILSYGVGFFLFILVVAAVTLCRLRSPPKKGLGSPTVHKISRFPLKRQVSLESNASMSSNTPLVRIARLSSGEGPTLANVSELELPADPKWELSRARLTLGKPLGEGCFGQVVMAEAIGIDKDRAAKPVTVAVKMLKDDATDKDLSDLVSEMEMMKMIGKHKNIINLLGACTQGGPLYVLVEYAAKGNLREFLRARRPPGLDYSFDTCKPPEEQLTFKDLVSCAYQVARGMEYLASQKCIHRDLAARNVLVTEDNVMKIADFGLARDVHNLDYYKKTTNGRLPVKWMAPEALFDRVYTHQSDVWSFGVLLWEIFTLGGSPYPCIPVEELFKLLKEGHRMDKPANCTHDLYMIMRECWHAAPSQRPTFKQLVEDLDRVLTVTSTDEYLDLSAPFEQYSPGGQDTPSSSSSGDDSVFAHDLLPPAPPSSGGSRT
T2 sequence (P22607 23-806 V555M): as the sequence (P22607 23-806 G697C) above, with V533M, C675G counted along it
T3 sequence (P22607 23-806 K650E): as the sequence (P22607 23-806 G697C) above, with K628E, C675G counted along it

As for `CCN1CCN(c2ccc(Nc3cc(N(C)C(=O)Nc4c(Cl)c(OC)cc(OC)c4Cl)ncn3)cc2)CC1` [BGJ398], the “activation of FGFR1 and its signal pathway” value in test [1] is given as “no effects”.
As usually defined, the IC50 is the concentration that gives 50% inhibition. Broadly, the Kd is the free concentration of one partner at which half of the binding sites on the other are occupied at equilibrium, for simple one-to-one binding. The low end stands for higher affinity, the high end for lower affinity. Take `Cc1ccc(C(=O)Nc2ccc(CN3CCN(C)CC3)c(C(F)(F)F)c2)cc1C#Cc1cnc2[nH]ncc2c1` [GZD824]: the half-inhibitory concentration (IC50) is 30.3 ± 21.7 nM in [2] and 8.1 to 55 nM in test [8]. Moreover, the “thermal stability of FGFR1‐V561F protein (CETSA)” value in test [3] is reported as “significantly enhanced”. The “total level of FGFR1 protein expression” value in test [4] (A549) and in test [5] (A204) was “no obvious effect” each time. Also, in test [4] (A549, negative control), the “effects on FGFR1 downstream signal pathway” value is on record as “very weak”. The “dose with obvious inhibition of pFRS2 and pERK” value in [5] (A204) is reported as at least 3.7 nM. Also, the “effect on pAKT” value is on record as “no effect” in [5] (A204, even at 300 nM); “strongly inhibit” in test [10]; “strongly inhibit” in [11]. Further, in [6], the “FGFR1 phosphorylation, downstream FRS2 and ERK1/2” value was “dose‐dependent inhibition”. For the same compound, the Kd in test [7] stood at 17 ± 5.7 nM; in test [9], 19.5 ± 4.9 nM; in test [12] it was 11 nM; in [15], 7.3 ± 0.3 nM; in [16] it was 39.5 ± 7.8 nM. In [13], the “tumor growth inhibition (TGI)” value was 49.8%. This compound also gave a G0/G1 phase in [14] of 70.88%.
